Reference: patent US20240239801A1, “PYRIMIDO[5,4,D]PYRIMIDINE COMPOUNDS, COMPOSITIONS COMPRISING THEM AND USES THEREOF” (Université de Montréal, priority 2021, published 2024)

Key:
HCT116 pERK = experiment: Phospho-ERK inhibition, AlphaLISA SureFire Ultra p-ERK 1/2; type: cell-based, human; conditions: Table 3; for IC50: 1 h treatment; for HCT116 (Ymin %): lowest value of the pERK IC50 curve
How it was run: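 IC50 derived by four-parameter fitting of % inhibition, with DMSO as 0% and 1 μM trametinib subtracted as background. Signal is AlphaLISA p-ERK1/2 (Thr202/Tyr204) in lysates of overnight-seeded cells (RPMI-1640, 5% FBS) treated 1 h with ten concentrations from 30 or 10 μM to 0.33 nM, 0.5% DMSO.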

CRAF = CRAF (Homo sapiens, UniProt P04049); experiment: CRAF kinase activity assay (ADP-Glo); type: biochemical; conditions: Table 3
Sequence of CRAF (P04049 whole entry): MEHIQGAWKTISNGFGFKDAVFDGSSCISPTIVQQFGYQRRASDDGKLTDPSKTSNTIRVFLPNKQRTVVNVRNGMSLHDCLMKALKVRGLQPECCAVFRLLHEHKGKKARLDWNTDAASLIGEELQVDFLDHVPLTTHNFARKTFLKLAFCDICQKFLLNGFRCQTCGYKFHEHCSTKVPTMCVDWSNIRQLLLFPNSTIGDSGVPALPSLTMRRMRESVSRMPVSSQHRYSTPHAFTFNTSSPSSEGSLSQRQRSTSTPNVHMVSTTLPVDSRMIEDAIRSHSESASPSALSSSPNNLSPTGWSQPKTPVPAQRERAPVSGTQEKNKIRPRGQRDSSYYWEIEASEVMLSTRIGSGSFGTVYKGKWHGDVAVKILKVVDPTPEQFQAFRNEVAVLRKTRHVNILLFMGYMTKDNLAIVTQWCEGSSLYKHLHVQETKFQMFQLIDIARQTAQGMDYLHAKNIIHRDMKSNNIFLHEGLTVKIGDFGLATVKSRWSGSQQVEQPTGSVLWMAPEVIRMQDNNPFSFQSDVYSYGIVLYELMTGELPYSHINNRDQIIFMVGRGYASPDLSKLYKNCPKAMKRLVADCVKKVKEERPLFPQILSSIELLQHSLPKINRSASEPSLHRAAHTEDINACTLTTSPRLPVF
Experimental: (§1) Compound preparation: solid samples of each substances in 1dram vials were suspended in DMSO (Fisher Scientific) at a stock concentration of 20 mM. Stocks were kept at −20° C. and protected from light. If solubility of the compound at 20 mM appeared to be an issue, the initial concentration of the DMSO stock was changed to 10 mM or 5 mM.
(§2) In vitro enzymatic reactions were used for evaluating compounds intrinsic activity against BRAF, CRAF and ARAF. For BRAF and CRAF, 0.375 nM of purified GST-tagged kinases (cat #B4062-10UG and cat #R1656-10UG respectively from Millipore Sigma) were incubated with 75 nM of kinase-dead MEK1 substrate (cat #40075; BPS Bioscience) in the presence of 10 μM of Ultrapure ATP (cat #V9102; Promega; part V915A) with and without the test compound in a buffer containing 50 mM HEPES pH 7.5, 10 mM MgCl2, 1 mM EDTA, 0.01% Brij-35 and 2 mM DTT. Separate reactions were performed with the MEK1 substrate and ATP as a blank control. ARAF, kinase reactions were rigorously the same with the exception that kinase concentration was raised to 3.75 nM (cat #1768-0000-1; Reaction Biology).
(§3) For compound treatment, 5 μL/well of test substance solution are placed in a 384-well proxyplate (Perkin Elmer) and mixed with 2× concentrated kinase reactions. The dilution series is selected so that nine concentrations cover a range from 100 nM to 0.01 nM. […] The final concentration of DMSO in the assay is set at 0.05%.
(§4) BRAF and CRAF kinase reactions were carried out for a total of 2 hours at 30° C. and then stopped by ½ dilution in ADP-Glo Reagent (cat #V9102; Promega; part V912C). Reactions were then incubated for 1 h at room temperature before addition of one volume of Kinase Detection Reagent (cat #V9102; Promega; part V917A). Plates were then equilibrated at room temperature for 30 minutes before detection of luminescence on a Synergy Neo2 plate reader (Biotek). The effect of each compound dilution on BRAF and CRAF kinase activity was expressed as % inhibition and calculated as follows. First, the internal 100% inhibition control (average of luminescence in kinase reactions comprising kinase dead MEK1 substrate alone) was subtracted from each data point. The average of DMSO (vehicle) controls (set as 0% inhibition) was established and used to calculate % inhibition:
(§5) IC50 values were obtained by plotting the kinase inhibition values and fitting the dose-activity curves using a log(agonist) versus response−variable slope (four parameters) function using either GraphPadPrism (V7.0) or Dotmatics Screening Ultra platform. Standards included in the ARAF kinase assay were Belvarafenib (MedChem Express cat #HY-109080; CAS #1446113-23-0), LXH254 (MedChem Express cat #HY-112089; CAS #1800398-38-2) and BGB283 (cat #HY-18957; CAS #1446090-79-4).

BRAF = molecular target: T1, BRAF (Homo sapiens, UniProt P15056); experiment: BRAF kinase activity assay (ADP-Glo); type: biochemical; conditions: Table 3
T1 construct: GST; purchased Millipore Sigma B4062-10UG
T1 sequence (P15056 whole entry): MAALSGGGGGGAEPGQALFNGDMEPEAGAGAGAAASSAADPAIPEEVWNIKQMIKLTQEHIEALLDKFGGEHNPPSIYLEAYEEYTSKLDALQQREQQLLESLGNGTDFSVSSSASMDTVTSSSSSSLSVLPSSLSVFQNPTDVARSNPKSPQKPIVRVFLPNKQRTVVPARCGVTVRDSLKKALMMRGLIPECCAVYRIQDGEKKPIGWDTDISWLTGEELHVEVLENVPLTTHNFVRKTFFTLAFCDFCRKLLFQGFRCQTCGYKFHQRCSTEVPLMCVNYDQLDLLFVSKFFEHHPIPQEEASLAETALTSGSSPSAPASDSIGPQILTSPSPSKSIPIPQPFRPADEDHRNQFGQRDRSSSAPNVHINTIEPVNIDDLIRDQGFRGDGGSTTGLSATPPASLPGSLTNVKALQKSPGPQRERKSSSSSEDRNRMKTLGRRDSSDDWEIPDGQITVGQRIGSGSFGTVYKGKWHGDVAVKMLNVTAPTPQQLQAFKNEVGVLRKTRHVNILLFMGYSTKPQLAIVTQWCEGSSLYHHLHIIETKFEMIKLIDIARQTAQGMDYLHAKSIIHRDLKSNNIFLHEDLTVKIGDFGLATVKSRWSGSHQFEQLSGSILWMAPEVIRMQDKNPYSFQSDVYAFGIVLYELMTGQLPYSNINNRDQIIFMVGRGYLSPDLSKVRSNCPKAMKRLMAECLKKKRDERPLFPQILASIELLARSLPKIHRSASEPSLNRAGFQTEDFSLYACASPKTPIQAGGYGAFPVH
Experimental: as §1, §2, §3, §4, §5

Structure (SMILES) | IC50 (HCT116 pERK) [nM] | HCT116 (Ymin %) (HCT116 pERK) | IC50 (CRAF) [nM] | IC50 (BRAF) [nM] | IC50 (HCT116 pERK; Homo sapiens, HCT-116) [nM]
Nc1cccc2c1nnn2-c1ncc2ncnc(Nc3c(F)ccc(NS(=O)(=O)c4cccc(Cl)c4Cl)c3F)c2n1 [Example 94] | < 500 | 7.7% | < 10 | 1 to 10 | –
Cc1c(F)cccc1S(=O)(=O)Nc1ccc(F)c(Nc2ncnc3cnc(-n4cc(S(=O)(=O)N5CCN(C)CC5)c5ccccc54)nc23)c1F [Example 96] | – | – | < 10 | < 1 | < 500
Cc1c(F)cccc1S(=O)(=O)Nc1ccc(F)c(Nc2ncnc3cnc(-n4cc(C(=O)N(C)C)c5ccccc54)nc23)c1F [Example 97] | < 500 | −6.3% | 10 to 50 | < 1 | –
Cc1c(F)cccc1S(=O)(=O)Nc1ccc(F)c(Nc2ncnc3cnc(-n4cc(C(=O)N5CCN(C)CC5)c5ccccc54)nc23)c1F [Example 99] | – | (−3.6) % | 10 to 50 | < 1 | –
Cc1c(F)cccc1S(=O)(=O)Nc1ccc(F)c(Nc2ncnc3cnc(-n4cc(C(=O)N5CCOCC5)c5ccccc54)nc23)c1F [Example 100] | < 500 | 2.2% | 10 to 50 | < 1 | –
Cc1c(F)cccc1S(=O)(=O)Nc1ccc(F)c(Nc2ncnc3cnc(-n4cc(C(=O)N(C)CCO)c5ccccc54)nc23)c1F [Example 101] | < 500 | 3.5% | < 10 | < 1 | –
Cc1c(F)cccc1S(=O)(=O)Nc1ccc(F)c(Nc2ncnc3cnc(-n4cc(C(=O)N5CCC(O)CC5)c5ccccc54)nc23)c1F [Example 102] | 500 to 1000 | −9.5% | < 10 | < 1 | –
Cc1c(F)cccc1S(=O)(=O)Nc1ccc(F)c(Nc2ncnc3cnc(-n4cc(C(=O)N5CCC[C@H](O)C5)c5ccccc54)nc23)c1F [Example 103] | 500 to 1000 | −9.9% | < 10 | < 1 | –
Cc1c(F)cccc1S(=O)(=O)Nc1ccc(F)c(Nc2ncnc3cnc(-n4nc(C(=O)N5CCN(C)CC5)c5ccccc54)nc23)c1F [Example 104] | – | – | > 50 | < 1 | < 500
Cc1c(F)cccc1S(=O)(=O)Nc1ccc(F)c(Nc2ncnc3cnc(-n4nc(C(=O)N(C)C)c5ccccc54)nc23)c1F [Example 105] | < 500 | −8.7% | > 50 | 1 to 10 | –
Cc1c(F)cccc1S(=O)(=O)Nc1ccc(F)c(Nc2ncnc3cnc(-n4nc(C(=O)N(C)Cc5ccncc5)c5ccccc54)nc23)c1F [Example 106] | < 500 | −2.3% | 10 to 50 | < 1 | –
Cc1c(F)cccc1S(=O)(=O)Nc1ccc(F)c(Nc2ncnc3cnc(-n4nc(C(=O)N(C)CCO)c5ccccc54)nc23)c1F [Example 107] | 500 to 1000 | −5.2% | 10 to 50 | < 1 | –
Cc1c(F)cccc1S(=O)(=O)Nc1ccc(F)c(Nc2ncnc3cnc(-n4nc(C(=O)N5CCC[C@H](O)C5)c5ccccc54)nc23)c1F [Example 109] | < 500 | −6.5% | 10 to 50 | < 1 | –
Cc1c(F)cccc1S(=O)(=O)Nc1ccc(F)c(Nc2ncnc3cnc(-n4nc(C(=O)N5CCOCC5)c5ccccc54)nc23)c1F [Example 110] | < 500 | −3.7% | 10 to 50 | < 1 | –
COc1ccc(S(=O)(=O)Nc2ccc(F)c(Nc3ncnc4cnc(-n5cnc6c(N)cccc65)nc34)c2F)c(C)c1F [Example 111] | < 500 | −8.1% | < 10 | 1 to 10 | –
Cc1c(F)cccc1S(=O)(=O)Nc1ccc(F)c(Nc2ncnc3cnc(-n4cc(S(=O)(=O)N(C)Cc5ccncc5)c5ccccc54)nc23)c1F [Example 113] | 500 to 1000 | −7.0% | 10 to 50 | 1 to 10 | –

Structure (SMILES) | IC50 (HCT116 pERK) [nM] | HCT116 (Ymin %) (HCT116 pERK) | IC50 (CRAF) [nM] | IC50 (BRAF) [nM] | IC50 (HCT116 pERK; Homo sapiens, HCT-116) [nM]
COc1ccc(S(=O)(=O)Nc2ccc(F)c(Nc3ncnc4cnc(-n5cnc6ccccc65)nc34)c2F)c(C)c1Cl [Example 115] | < 500 | 2% | 10 to 50 | 1 to 10 | –
COc1ccc(S(=O)(=O)Nc2ccc(F)c(Nc3ncnc4cnc(-n5cnc6ccccc65)nc34)c2F)c(C)c1F [Example 116] | < 500 | −1% | > 50 | 1 to 10 | –
COc1ccc(S(=O)(=O)Nc2ccc(F)c(Nc3ncnc4cnc(-n5nnc6ccccc65)nc34)c2F)c(C)c1Cl [Example 117] | 1000 to 10000 | −1% | 10 to 50 | > 10 | –
COc1ccc(S(=O)(=O)Nc2ccc(F)c(Nc3ncnc4cnc(-n5nnc6ccccc65)nc34)c2F)c(C)c1F [Example 118] | 1000 to 10000 | −14% | 10 to 50 | > 10 | –
Cc1c(F)cccc1S(=O)(=O)Nc1ccc(F)c(Nc2ncnc3cnc(-n4nnc5ccccc54)nc23)c1F [Example 121] | 1000 to 10000 | −4% | < 10 | 1 to 10 | –
Cc1c(Cl)cccc1S(=O)(=O)Nc1ccc(F)c(Nc2ncnc3cnc(-n4nnc5ccccc54)nc23)c1F [Example 124] | 1000 to 10000 | −9% | < 10 | 1 to 10 | –
Cc1c(Cl)cccc1S(=O)(=O)Nc1ccc(F)c(Nc2ncnc3cnc(-n4cnc5ccccc54)nc23)c1F [Example 127] | < 500 | 0% | < 10 | 1 to 10 | –
CC1(O)CCN(c2cccc3c2ncn3-c2ncc3ncnc(Nc4c(F)ccc(NS(=O)(=O)c5cccc(Cl)c5Cl)c4F)c3n2)CC1 [Example 130] | < 500 | −13% | < 10 | 1 to 10 | –
COC1CCN(c2cccc3c2ncn3-c2ncc3ncnc(Nc4c(F)ccc(NS(=O)(=O)c5cccc(Cl)c5Cl)c4F)c3n2)CC1 [Example 131] | < 500 | −4% | 10 to 50 | 1 to 10 | –
N#CC1CCN(c2cccc3c2ncn3-c2ncc3ncnc(Nc4c(F)ccc(NS(=O)(=O)c5cccc(Cl)c5Cl)c4F)c3n2)CC1 [Example 132] | < 500 | −4% | < 10 | 1 to 10 | –
CCC1(O)CCN(c2cccc3c2ncn3-c2ncc3ncnc(Nc4c(F)ccc(NS(=O)(=O)c5cccc(Cl)c5Cl)c4F)c3n2)CC1 [Example 133] | < 500 | −6% | < 10 | 1 to 10 | –
CN(CCO)c1cccc2c1ncn2-c1ncc2ncnc(Nc3c(F)ccc(NS(=O)(=O)c4cccc(Cl)c4Cl)c3F)c2n1 [Example 134] | < 500 | 8% | < 10 | 1 to 10 | –
N#CC1(c2cccc3c2nnn3-c2ncc3ncnc(Nc4c(F)ccc(NS(=O)(=O)c5cccc(Cl)c5Cl)c4F)c3n2)CC1 [Example 135] | – | – | < 10 | 1 to 10 | 500 to 1000
CCC1(O)CCN(c2cccc3c2nnn3-c2ncc3ncnc(Nc4c(F)ccc(NS(=O)(=O)c5cccc(Cl)c5Cl)c4F)c3n2)CC1 [Example 136] | < 500 | 19% | < 10 | 1 to 10 | –
COCCOc1cccc2c1nnn2-c1ncc2ncnc(Nc3c(F)ccc(NS(=O)(=O)c4cccc(Cl)c4Cl)c3F)c2n1 [Example 137] | – | – | < 10 | 1 to 10 | < 500
O=S(=O)(Nc1ccc(F)c(Nc2ncnc3cnc(-n4nnc5c(N6CCC7(CCCO7)CC6)cccc54)nc23)c1F)c1cccc(Cl)c1Cl [Example 138] | < 500 | 1% | 10 to 50 | > 10 | –
